# Test results: US10426841B2, “Combination of drugs with protein-binding prodrugs” (VERGELL MEDICAL S.A., priority 2010, dated 2019)
# Key:
# [1] = Maximum tolerated dose in nude mice; format: in vivo; settings: 2×12 mg/kg body weight
# [2] = test system: human ovarian cancer xenografts (A2780); assay: Antitumor efficacy and tolerability in the ovarian carcinoma A2780 xenograft model; settings: for toxic death: 8 mice per group; for RTV day 30 (relative tumor volume): * significant to Doxorubicin; for antitumor efficacy (in words): doxorubicin 2×8 mg/kg up to day 30
# Method: In order to evaluate the in vivo antitumor efficacy of a combination of doxorubicin with DOXO-EMCH in tumor-bearing mice, a direct comparison was made with a group treated with doxorubicin (2×8 mg/kg body weight) or DOXO-EMCH (3×24 mg/kg body weight doxorubicin equivalents) at their respective MTDs. For the combination, a lower dose of doxorubicin (3×4 mg/kg body weight) was combined with a lower dose of DOXO-EMCH (3×12 mg/kg body weight doxorubicin equivalents) wherein the DOXO-EMCH was administered 6 h prior to doxorubicin on the respective days of administration (cf. Table 1).
# Experimental Procedure. […] For in vivo testing, female NMRI: nu/nu mice (Taconic, Denmark) were used. The mice were held in individually ventilaged cages (IVC) under sterile and standardized environmental conditions (25±2° C. room temperature, 50±10% relative humidity, 12 hour light-dark-rhythm). They received autoclaved food and bedding (ssniff, Soest, Germany) and acidified (pH 4.0) drinking water ad libitum. A2780 tumor fragments were transplanted subcutaneously (s.c.) into the left flank region of anaesthetized mice (40 mg/kg i.p. Radenarkon, Asta Medica, Frankfurt, Germany) on day 0. Mice were randomly distributed to the experimental groups (8 mice per group). When the tumors were grown to a palpable size, treatment was initiated. Mice were treated intravenously (i.v.) with either glucose phosphate buffer (10 mM sodium phosphate, 5% D-(+)-glucose, pH 5.8), doxorubicin (2×8 mg/kg body weight), or DOXO-EMCH (3×24 mg/kg body weight doxorubicin equivalents), or a combination of DOXO-EMCH (3×12 mg/kg body weight doxorubicin equivalents) and doxorubicin (3×4 mg/kg body weight) with a 6 hour interval on the day of administration. DOXO-EMCH was dissolved in 10 mM sodium phosphate, 5% D-(+)-glucose, pH 5.8. The compounds were injected intravenously at weekly intervals on days 6 and 13 and on days 6, 13 and 20 for the remaining compounds. The injection volume was 0.2 ml/20 g body weight. Tumor size was measured twice weekly with a caliper-like instrument in two dimensions. Individual tumor volumes (V) were calculated by the formula V=(length×[width]2)/2 and related to the values on the first day of treatment (relative tumor volume, RTV). Statistical analysis was performed with the U-test (Mann and Whitney) with p<0.05. The body weight of mice was determined every 3 to 4 days.
# [3] = i.v., doxorubicin 8 mg/kg days 6, 13, DOXO-EMCH 24 mg/kg days 6, 13, 20, combination 4 + 12 mg/kg days 6, 13, 20
# [4] = DOXO-EMCH 3×24 mg/kg, combination DOXO-EMCH 3×12 + doxorubicin 3×4 mg/kg
SMILES,toxicity at doses higher than MTD [1],"toxic death [2, 3]","RTV day 20 (relative tumor volume) [2, 3]","RTV day 30 (relative tumor volume) [2, 3]","antitumor efficacy (in words) [2, 4]","body weight loss ([2]; DOXO-EMCH 3×24 mg/kg, after day 37, some animals died or were killed)","duration of tumor remissions [2, 4]","BWC [%] (body weight change) ([2]; day of value in brackets in the cell, i.v., doxorubicin 8 mg/kg days 6, 13, DOXO-EMCH 24 mg/kg days 6, 13, 20, combination 4 + 12 mg/kg days 6, 13, 20)"
"COc1cccc2c1C(=O)c1c(O)c3c(c(O)c1C2=O)C[C@@](O)(C(=O)CO)C[C@@H]3O[C@H]1C[C@H](N)[C@H](O)[C@H](C)O1 [Doxorubicin, doxorubicin, reference compound]",unacceptable toxicity and mortality,0,7.4,23.9,moderate antitumor efficacy,,,
"COc1cccc2c1C(=O)c1c(O)c3c(c(O)c1C2=O)CC(O)(C(CO)=NNC(=O)CCCCCN1C(=O)C=CC1=O)CC3OC1CC(N)C(O)C(C)O1 (stereo not drawn) [DOXO-EMCH, 6-maleimidocaproyl(hydrazone) derivative of doxorubicin]",,0,0.2,0.1*,pronounced antitumor effect,over 30%,up to 37 days,−31 (d37) %
